From patent publication US20070258889A1, “NOVEL NANOPARTICLES AND USE THEREOF” (Montana State University, priority 2005, published 2007)
In brackets after ≈: the same amount, converted by molar mass. Each block holds one molecule with its values, some of them ahead of it.

How the values were obtained:
[1] = Singlet oxygen production assay (TEMP to TEMPO, EPR); conditions: 20 μM reactive dye, 50 mM TEMP, DPBS pH 7.4; free dye
[2] = room temperature; cited from earlier work
[3] = Solubility (saturation); assay type: physicochemical; conditions: with 1% DMF, aqueous buffer, room temperature, solutions in which the protein cages are stable
[4] = test system: tumor lung colonization; conditions: mouse, in vivo; cited from earlier work
[5] = test system: tumor cells; conditions: cited from earlier work
[6] = test system: platlets and neutrophils; conditions: cited from earlier work
[7] = test system: tumor angiogenesis; conditions: mice; cited from earlier work

Molecule: O=C([O-])c1c(Cl)c(Cl)c(Cl)c(Cl)c1-c1c2cc(I)c(=O)c(I)c-2oc2c(I)c([O-])c(I)cc12.[Na+].[Na+] [Rose Bengal]
increase in the amount of TEMPO generated [1]: 4 fold

Molecule: CC(=O)Oc1ccccc1C(=O)O [acetylsalicylic acid]
solubility (saturation) [2]: ~18500 µM (≈ 3330 µg/mL)

solubility [3]: ~2 µM (≈ 1.09 µg/mL)
Molecule: COc1cccc2c1C(=O)c1c(O)c3c(c(O)c1C2=O)C[C@@](O)(C(=O)CO)C[C@@H]3O[C@H]1C[C@H](N)[C@H](O)[C@H](C)O1 [doxorubicin]

solubility [3]: ~2 µM (≈ 0.665 µg/mL)
Molecule: O=C1OC2(c3ccc(O)cc3Oc3cc(O)ccc32)c2ccccc21 [fluorescein]

Molecule: CDPGYIGSRC [peptide 11]
experimental tumor lung colonization [4]: reduces experimental tumor lung colonization
invasion of basement membranes by tumor cells [5]: effectively blocks invasion of basement membranes by tumor cells
toxic effect on platelets and neutrophils [6]: no toxic effect on these cells
tumor angiogenesis [7]: inhibits tumor angiogenesis in mice
